{"source": "ChEMBL document CHEMBL1133253", "about": "“Improved antibacterial activities of coumarin antibiotics bearing 5',5'-dialkylnoviose: biological activity of RU79115” (Bioorg Med Chem Lett, 2000)", "key": {"[1]": {"test_system": "Staphylococcus aureus", "experiment": "Tested for in vitro antibacterial activity against Staphylococcus aureus 011 HT3 phenotype", "assay_type": "functional"}, "[2]": {"test_system": "Staphylococcus aureus", "experiment": "IC50 was determined for gyrase B of Staphylococcus aureus against novobiocin (0.5 mg/mL) as reference; IC50nov/IC50comp"}, "[3]": {"test_system": "Enterococcus faecium", "experiment": "Tested for in vitro antibacterial activity against Enterococcus faecium 02D31P2 vancomycin teicoplanin erythromycin resistance phenotype", "assay_type": "functional"}, "[4]": {"test_system": "Streptococcus pyogenes", "experiment": "Tested for in vitro antibacterial activity against Streptococcus pyogenes O2A1UC1 phenotype", "assay_type": "functional"}, "[5]": {"test_system": "Staphylococcus aureus", "experiment": "Tested for in vitro antibacterial activity against Staphylococcus aureus 011 HT1 novobiocin resistance phenotype", "assay_type": "functional"}, "[6]": {"test_system": "Staphylococcus epidermidis", "experiment": "Tested for in vitro antibacterial activity against Staphylococcus epidermidis 012GO42 oxacillin resistance phenotype", "assay_type": "functional"}, "[7]": {"test_system": "Staphylococcus aureus", "experiment": "Tested for in vitro antibacterial activity against Staphylococcus aureus 011 GO64 ofloxacin oxacillin erythromycin resistance phenotype", "assay_type": "functional"}}, "data": [{"smiles": "CO[C@@H]1[C@@H](OC(N)=O)[C@@H](O)[C@H](Oc2ccc3c(O)c(NC(=O)c4ccc(O)c(CC=C(C)C)c4)c(=O)oc3c2C)OC1(C)C", "note": "[NOVOBIOCIN]", "values": [{"measurement": "MIC", "setting": "[1]", "result": "< 0.04", "unit": "µg/mL"}, {"measurement": "Ratio", "setting": "[2]", "result": 1}, {"measurement": "MIC", "setting": "[3]", "result": 0.6, "unit": "µg/mL"}, {"measurement": "MIC", "setting": "[4]", "result": 0.3, "unit": "µg/mL"}, {"measurement": "MIC", "setting": "[5]", "result": 10, "unit": "µg/mL"}, {"measurement": "MIC", "setting": "[6]", "result": "< 0.04", "unit": "µg/mL"}]}, {"smiles": "C#CCONC(=O)O[C@H]1[C@@H](O)[C@H](Oc2ccc3c(=O)c(/C(C)=N/OC)c(O)oc3c2C)O[C@@](C)(CC=C)[C@@H]1OC", "values": [{"measurement": "MIC", "setting": "[1]", "result": "< 0.04", "unit": "µg/mL"}, {"measurement": "Ratio", "setting": "[2]", "result": 2.6}, {"measurement": "MIC", "setting": "[3]", "result": 0.6, "unit": "µg/mL"}, {"measurement": "MIC", "setting": "[4]", "result": 0.3, "unit": "µg/mL"}, {"measurement": "MIC", "setting": "[5]", "result": 1.2, "unit": "µg/mL"}, {"measurement": "MIC", "setting": "[6]", "result": "< 0.04", "unit": "µg/mL"}]}, {"smiles": "C#CCONC(=O)O[C@H]1[C@@H](O)[C@H](Oc2ccc3c(O)c(/C(C)=N/OC)c(=O)oc3c2C)OC(CC)(CC)[C@@H]1OC", "values": [{"measurement": "MIC", "setting": "[1]", "result": "< 0.04", "unit": "µg/mL"}, {"measurement": "MIC", "setting": "[7]", "result": 0.08, "unit": "µg/mL"}, {"measurement": "Ratio", "setting": "[2]", "result": 4}, {"measurement": "MIC", "setting": "[3]", "result": 0.6, "unit": "µg/mL"}, {"measurement": "MIC", "setting": "[4]", "result": 0.6, "unit": "µg/mL"}, {"measurement": "MIC", "setting": "[5]", "result": 2.5, "unit": "µg/mL"}, {"measurement": "MIC", "setting": "[6]", "result": "< 0.04", "unit": "µg/mL"}]}, {"smiles": "C#CCONC(=O)O[C@H]1[C@@H](O)[C@H](Oc2ccc3c(=O)c(/C(C)=N/OC)c(O)oc3c2C)OC2(CCCCC2)[C@@H]1OC", "values": [{"measurement": "MIC", "setting": "[1]", "result": "< 0.04", "unit": "µg/mL"}, {"measurement": "MIC", "setting": "[7]", "result": 0.15, "unit": "µg/mL"}, {"measurement": "Ratio", "setting": "[2]", "result": 2.6}, {"measurement": "MIC", "setting": "[3]", "result": 0.15, "unit": "µg/mL"}, {"measurement": "MIC", "setting": "[4]", "result": 0.6, "unit": "µg/mL"}, {"measurement": "MIC", "setting": "[5]", "result": 0.6, "unit": "µg/mL"}, {"measurement": "MIC", "setting": "[6]", "result": "< 0.04", "unit": "µg/mL"}]}, {"smiles": "CO[C@@H]1[C@@H](OC(=O)c2ccc(C)[nH]2)[C@@H](O)[C@H](Oc2ccc3c(O)c(NC(=O)c4ccc(O)c(CC=C(C)C)c4)c(=O)oc3c2Cl)OC1(C)C", "note": "[CHLOROBIOCIN]", "values": [{"measurement": "MIC", "setting": "[1]", "result": "< 0.04", "unit": "µg/mL"}, {"measurement": "Ratio", "setting": "[2]", "result": 1.7}, {"measurement": "MIC", "setting": "[3]", "result": "< 0.04", "unit": "µg/mL"}, {"measurement": "MIC", "setting": "[4]", "result": "< 0.04", "unit": "µg/mL"}, {"measurement": "MIC", "setting": "[5]", "result": 0.6, "unit": "µg/mL"}]}]}
